Ends that are not written are not given here.
Experiments:
monomeric BAX = monomeric BAX (Homo sapiens, UniProt Q07812); test: BAX oligomerization assay (size exclusion chromatography); type: biochemical; settings: wild-type BAX, room temperature
Source text: In contrast to the stable inhibitory interactions of BIM BH3 with anti-apoptotic proteins, the BAX-activating interaction triggers a dynamic continuum of events that includes BAX conformational change and oligomerization. […] In monomeric BAX, the center of the loop weakly associates with residues Ile133 and Met 137 of the α6 helix (Suzuki & Tjandra, Cell 103 (4), 645-654 (2000)). Changes observed in the loop residues can readily be explained by the shift of the loop conformation into an open form upon BIM SAHB binding. Because loop displacement upon ligand engagement may initiate a conformational change of BAX, we investigated whether BIM SAHB binding could directly activate BAX in solution. We monitored both the conversion of BAX from monomer to oligomer by size-exclusion chromatography (SEC) and the exposure of its buried N-terminal residues using the 6A7 antibody, which selectively detects the conformational change associated with BAX activation (Hsu & Youle, The Journal of biological chemistry 272 (21), 13829-13834 (1997)). […] Thus, the transient stability of the BIM SAHB-BAX complex we observe by NMR correlates with the interaction-triggered BAX conformational change and oligomerization that we detect biochemically.
Oligomerization assay: BIM SAHB was added to a 200 μL solution (20 mM Hepes/KOH pH 7.2-7.4, 150 mM KCl) containing monomeric BAX (38 μM) at a ratio of 0.5:1, 1:1, 2:1 and 4:1 BIM SAHB:BAX. The mixtures and a sample of BAX monomer alone were incubated at 22° for 15 minutes and then subjected to analysis by size exclusion chromatography (SEC) using an SD75 column. […] Protein standards (GE Healthcare) were used to calibrate the molecular weights of gel filtration peaks. For time-dependent analysis, BIM SAHB was added to monomeric BAX at a ratio of 1:1, and the mixtures were analyzed by SEC after incubation for 30, 60, and 90 minutes at 22° C. As a baseline for comparison, Bax monomer alone was analyzed at time 0 and the above time points.

[1] = system: BAX-mediated cytochrome c release, BAX/BAK doubly-deficient mouse liver mitochondria; test: mitochondrial cytochrome c release assay; type: biochemical; settings: Alb-cre pos Bax flox/− Bak−/− mouse liver mitochondria plus BAX
Source text: (§1) To confirm that the SEC-based detection of BIM SAHB-induced BAX oligomerization reflects functional activation of BAX for its release activity, we performed correlative liposomal and mitochondrial assays. […] Thus, in four distinct in vitro assays that measure ligand-induced BAX activation, BIM SAHB directly and dose-responsively triggered BAX.
Mitochondrial Release Assay: In order to test activation/inhibition of a BCL-2 family polypeptide interactions on mitochondrial apoptosis induction, a cytochrome c release assay is used that employs mouse liver mitochondria from Bak^−/− mice or Alb-cre^posBax^flox/−Bak^−/− mice, added recombinant BCL-2 family polypeptide, e.g., BAX, BAK, or BOK (50 nM) with or without increasing doses of SAHBs (50-500 nM), and an ELISA-based read-out of cytochrome c. Negative controls include recombinant protein alone, compounds alone, vehicle treatment, point mutant SAHBs, and blockade using anti-apoptotic proteins, such as BCL-XL ΔC.

[2] = target: T1, BCL-2-related ovarian killer (BOK) (Homo sapiens, UniProt Q9UMX3); test: binding of SAHB ligands to BOK
T1 sequence (Q9UMX3 1-212): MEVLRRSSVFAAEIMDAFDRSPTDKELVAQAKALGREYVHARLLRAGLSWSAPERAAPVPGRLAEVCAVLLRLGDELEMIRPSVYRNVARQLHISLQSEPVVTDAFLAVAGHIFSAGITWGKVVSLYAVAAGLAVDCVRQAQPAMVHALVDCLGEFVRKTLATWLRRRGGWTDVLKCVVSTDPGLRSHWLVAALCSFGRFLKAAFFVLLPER

[3] = system: MCL-1 overexpressing or otherwise chemoresistant cancer cells; test: reactivating apoptosis of MCL-1 overexpressing or chemoresistant cancer cells; type: cell-based
Source text: Many cancer cells and their relapsed/chemoresistant variants achieve cellular immortality by massively overexpressing anti-apoptotic members of the BCL-2 family. Using BH3 mimetics and small molecules, anti-apoptotic inhibition is one mode of overcoming apoptotic blockade. However, when BH3 mimetics or small molecules have a specificity profile that cannot target a specific anti-apoptotic blockade, such as MCL-1 overexpression (Van Delft et al, Cancer Cell. 2006 Nov.; 10(5):389-99; Konopleva et al, Cancer Cell. 2006 Nov.; 10(5):375-88; Deng et al Cancer Cell. 2007 Aug.; 12(2):171-85), direct BAX modulation can circumvent, or synergize with, such apoptotic blockade for therapeutic benefit. […] Therefore, cancers or other diseased cells that either overexpress anti-apoptotic proteins such as MCL-1 and A1, or cancers or diseased cells that specifically down-regulate activator BH3-only proteins, like BIM, such as in Mantle Cell lymphoma (Tagawa et al Oncogene. 2005 Feb. 17; 24(8):1348-58; Mestre-Escorihuela, Blood. 2007 Jan. 1; 109(1):271-80) and cf. with mouse model of BIM-deletion, are ideally suited for BIM SAHB, or derivatives and mimetics thereof, to reactivate apoptosis through direct engagement of the novel BAX activation site and thereby induce apoptosis for therapeutic purposes and irrespective of the aforementioned apoptotic blockades.

[4] = system: Bax−/−Bak−/− mouse embryo fibroblasts reconstituted with BAXK21E; test: apoptosis of BAXK21E-reconstituted DKO MEFs (annexin-V binding); type: cell-based; settings: compared with wild-type BAX
Source text: (§2) To determine if this single point mutation within the novel BAX binding site impacted the capacity to activate BAX in a cellular context, we retrovirally reconstituted Bax^−/−Bak^−/− mouse embryo fibroblasts (DKO MEFs) with either wild type or BAXK21E and monitored apoptosis induction in response to BIM SAHB. […] This decrease in BAXK21E-mediated apoptosis correlates with impaired activation of […] by BIM SAHB in both oligomerization and cytochrome c release assays (FIG. 15a, 15b).
To probe the broader physiologic impact of the novel BAX activation site, we examined the apoptotic response of DKO MEFs reconstituted with BAX and BAXK21E to staurosporine (STS), a general stimulus known to operate through endogenous BH3-only proteins, including BIM. K21E mutagenesis impaired STS-induced apoptosis, as monitored by annexin V binding over time (FIG. 15d). The reduced activity of BAXK21E was also reflected by impaired cytochrome c release, as detected by subcellular fractionation Western analysis and indirect immunofluorescence. The blunted response of BAXK21E-reconstituted DKO MEFs to STS is uniformly consistent with impaired activation of BAXK21E by BIM SAHB in oligomerization (FIG. 15a), cytochrome c release (FIG. 15b), and cell-based apoptosis assays (FIG. 15c). […]

[5] = system: Pfeiffer lymphoma cell line which overexpresses MCL-1 and A1; test: killing of Pfeiffer lymphoma cell line; type: cell-based
[6] = system: Bax−/−Bak−/− mouse embryo fibroblasts reconstituted with wild type BAX; test: apoptosis of BAX-reconstituted DKO MEFs (annexin-V binding); type: cell-based
Source text: as §2

BAX = BAX (Homo sapiens, UniProt Q07812); test: liposomal release assay (FITC-dextran); type: biochemical; settings: combination with BAX
Chain of BAX (Q07812 whole entry): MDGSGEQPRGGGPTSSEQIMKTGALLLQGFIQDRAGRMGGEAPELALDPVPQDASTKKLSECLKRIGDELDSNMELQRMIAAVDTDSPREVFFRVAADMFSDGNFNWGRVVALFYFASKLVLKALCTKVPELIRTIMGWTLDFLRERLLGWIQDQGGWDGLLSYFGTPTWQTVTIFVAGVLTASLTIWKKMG
Source text: as §1
Liposomal Release Assay: Another assay that can be used to determine modulation of the BCL-2 family polypeptide is a liposomal release assay that simulates the mitochondria but only includes the essential components for BAX/BAK/BOK-induced release. […] Lipid concentration is determined by measuring vesicular phosphate content (Böttcher, C. J. F. et al. (1961) Anal Chim Acta 24, 203-204). The fluorescence dequenching assay is adapted from previous reports (Kuwana, T. et al. (2002) Cell 111(3), 331-342) (Terrones, O., et al. (2004) J Biol Chem 279(29), 30081-30091). The release of FITC-labeled dextran-10 kD from LUVs is monitored using a FluoroMax-2 spectrofluorometer (SPEX), in a thermostated 1 cm path length quartz cuvette with constant stirring at 37° C. […]

Chain of monomeric BAX (Q07812 whole entry): as above

| Molecule | BAX oligomerization (monomer to oligomer, SEC) (monomeric BAX) | BAX-mediated cytochrome c release [1] | apoptosis induction, annexin-V binding [4] | further results |
| --- | --- | --- | --- | --- |
| BID SAHB: hydrocarbon-stapled BID BH3 polypeptide (FIG. 9, SEQ ID NO:4) (ESQEDIIRNIARHLAQVGDEMDRSI; staple (positions not given here); also: hydrocarbon staple, positions not given here; listed as Homo sapiens) | – | – | – | binding to BOK [2]: bound; potency in reactivating apoptosis relative to ABT-737 or BAD SAHB [3]: more potent |
| CN[C@@H]1C[C@H]2O[C@@](C)([C@@H]1OC)n1c3ccccc3c3c4c(c5c6ccccc6n2c5c31)C(=O)NC4 [staurosporine, reference compound] | – | – | impaired | – |
| CN(C)CC[C@H](CSc1ccccc1)Nc1ccc(S(=O)(=O)NC(=O)c2ccc(N3CCN(Cc4ccccc4-c4ccc(Cl)cc4)CC3)cc2)cc1[N+](=O)[O-] [ABT-737, reference compound] | – | – | – | cell killing / sensitivity [5]: resistant |

Second part, led by results:

| BAX oligomerization (monomer to oligomer, SEC) (monomeric BAX) | Molecule | BAX-mediated cytochrome c release [1] | apoptosis induction, annexin-V binding [4] | further results |
| --- | --- | --- | --- | --- |
| abrogated | D157R: BIM SAHB with reverse-polarity point mutation D157R (FIG. 13a) (EIWIAQELRRIGREFNAYYARR; staple (positions not given here); also: hydrocarbon staple, positions not given here) | abrogated | – | – |
| abrogated | I155E: BIM SAHB with hydrophobic to charged point mutation I155E (FIG. 13a) (EIWIAQELRREGDEFNAYYARR; staple (positions not given here); also: hydrocarbon staple, positions not given here) | abrogated | – | – |
| abrogated | BIM SAHB R153D: BIM SAHB with reverse-polarity point mutation R153D at the BAX interaction surface (FIG. 13a) (EIWIAQELDRIGDEFNAYYARR; staple (positions not given here); also: hydrocarbon staple, positions not given here) | abrogated | abolished | apoptosis induction, annexin-V binding [6]: abolished; liposomal release of entrapped FITC-dextran (BAX): abrogation of activity |
